Molecules are shown by their SMILES.

Experiment [1] concerns the target T1, recombinant human CK2 (RRBB-holoenzyme) (Homo sapiens, UniProt P68400).
T1 construct: purchased Millipore
Put plainly: CK2 Kinase Assay (33P-ATP, substrate peptide RRRDDDSDDD). In kind it is biochemical. The note with it: final ATP concentration 15 μM, 10 min at 30° C.; read-out: protein kinase CK2 activity IC50. The method, then: CK2 Kinase Assay was conducted using the previously described protocol (Pierre F. et al; J. Med. Chem. 2011, 54, 635-654). The tested compounds in aqueous solution were added at a volume of 10 μL to a reaction mixture comprising 10 μL of assay dilution buffer (ADB; 20 mM MOPS, pH 7.2, 25 mM β-glycerol phosphate, 5 mM EGTA, 1 mM sodium orthovanadate, and 1 mM dithiothreitol), 10 μL of substrate peptide (RRRDDDSDDD, dissolved in ADB at a concentration of 1 mM), 10 μL of recombinant human CK2 (RRBB-holoenzyme, 25 ng dissolved in ADB; Millipore). Reactions were initiated by the addition of 10 μL of ATP solution (90% 75 mMMgCl2, 75 μM ATP (final ATP concentration: 15 μM) dissolved in ADB; 10% [γ-33P] ATP (stock 1 mCi/100 μL; 3000 Ci/mmol (Perkin-Elmer) and maintained for 10 min at 30° C. The reactions were quenched with 100 μL of 0.75% phosphoric acid and then transferred to and filtered through a phosphor cellulose filter plate (Millipore). After washing each well five times with 0.75% phosphoric acid, the plate was dried under vacuum for 5 min and, following the addition of 15 μL of scintillation fluid to each well, the residual radioactivity was measured using a Wallac […] counter. The IC50 values were derived from eight concentrations of test inhibitors.

The test system of the next experiment is HL60 (leukemia). Put plainly: MTT in vitro cytotoxic activity assay, HL60. It is filed as cell-based. The note with it: Homo sapiens, HL-60, 96 h incubation, read-out: Cytotoxicity activity, HL60 (leukemia). The method, then: (§1) Compounds 1-16 were screened for their in vitro cytotoxic behavior using a 3-(4,5-dimethyl-thiazol-2-yl)-2,5-diphenyltetrazolium bromide (MTT) assay against selected cancer human cell lines consisting of PC3 (prostate), HCT116 (colon), A375 (melanoma), H1299 (lung), MIAPaCa-2 (pancreas), HL60 (leukemia), MCF7 (breast), MDA-MB-231 (breast) (T. Mosmann, J. Immunol. Meth., 1983, 65, 55-63). The cells were cultured at 37° C. in RMPI1640 medium supplemented with 10% fetal bovine serum, 50 IU/mL penicillin, and 50 μg/mL streptomycin in a 5% CO2 incubator. All cells were sub-cultured 3 times/week by trypsinisation. Viable cells were seeded and allowed to adhere for 12 h before a test drug was added in 96-well plates at an initial density of 1.0×10^5 cells/mL. Tumor cell lines were separately exposed to various concentrations of the tested compounds followed by incubation at a temperature of 37° C. during 96 h inside a medium of fresh RMPI 1640. Cells were subsequently incubated at 37° C. using MTT at 0.5 mg/mL for 4 hours. After removal of supernatant, formazan crystals were dissolved in isopropanol and the optical density was measured at 570 nm. CX-4945 was used as a positive control.

The subject of another experiment is MCF7 (breast). Put plainly: MTT in vitro cytotoxic activity assay, MCF7. The following applies: Homo sapiens, 96 h incubation, read-out: Cytotoxicity activity, MCF7 (breast). In kind it is cell-based. How it is done:
as §1

The next experiment concerns MDA-MB-231 (breast). As to the kind of experiment: MTT in vitro cytotoxic activity assay, MDA-MB-231. It is filed as cell-based. The following applies: Homo sapiens, 96 h incubation, read-out: Cytotoxicity activity, MDA-MB-231 (breast). How it is done: as §1
A further experiment has as its system HCT116 (colon). As to the kind of experiment: MTT in vitro cytotoxic activity assay, HCT116. It is filed as cell-based. The note with it: Homo sapiens, HCT-116, 96 h incubation, read-out: Cytotoxicity activity, HCT116 (colon). The method, then: as §1
Experiment [2] concerns various human cancer cell lines. As to the kind of experiment: MTT in vitro cytotoxic activity assay, panel of human cancer cell lines. In kind it is cell-based. The note with it: MCF7, MDA-MB-231, H1299, PC3, HCT116, A375, MIAPaCa-2, HL60. The method, then:
as §1

The test system of another experiment is A375 (melanoma). Put plainly: MTT in vitro cytotoxic activity assay, A375. In kind it is cell-based. The note with it: Homo sapiens, A-375, 96 h incubation, read-out: Cytotoxicity activity, A375 (melanoma). The method, then:
as §1

The subject of the next experiment is PC3 (prostate). As to the kind of experiment: MTT in vitro cytotoxic activity assay, PC3. It is filed as cell-based. The note with it: Homo sapiens, 96 h incubation, read-out: Cytotoxicity activity, PC3 (prostate). The method, then: as §1
In another experiment the test system is H1299 (lung). Put plainly: MTT in vitro cytotoxic activity assay, H1299. In kind it is cell-based. The following applies: Homo sapiens, NCI-H1299, 96 h incubation, read-out: Cytotoxicity activity, H1299 (lung). How it is done: as §1
A further experiment deals with MIAPaCa-2 (pancreas). Put plainly: MTT in vitro cytotoxic activity assay, MIAPaCa-2. It is filed as cell-based. The following applies: Homo sapiens, MIA PaCa-2, 96 h incubation, read-out: Cytotoxicity activity, MIAPaCa-2 (pancreas). How it is done:
as §1

T1 sequence (P68400 whole entry): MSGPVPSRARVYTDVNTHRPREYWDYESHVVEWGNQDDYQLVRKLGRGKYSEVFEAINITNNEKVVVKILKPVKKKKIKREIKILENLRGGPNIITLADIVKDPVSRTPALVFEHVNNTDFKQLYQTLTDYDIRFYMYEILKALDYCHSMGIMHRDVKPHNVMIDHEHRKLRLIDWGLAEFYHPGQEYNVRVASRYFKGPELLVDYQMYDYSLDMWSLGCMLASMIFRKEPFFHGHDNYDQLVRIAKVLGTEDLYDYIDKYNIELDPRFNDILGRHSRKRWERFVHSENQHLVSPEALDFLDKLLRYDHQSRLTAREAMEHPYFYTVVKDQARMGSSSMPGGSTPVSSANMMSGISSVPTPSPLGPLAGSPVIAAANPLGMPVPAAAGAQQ
T1 sequence (P67870 whole entry partner): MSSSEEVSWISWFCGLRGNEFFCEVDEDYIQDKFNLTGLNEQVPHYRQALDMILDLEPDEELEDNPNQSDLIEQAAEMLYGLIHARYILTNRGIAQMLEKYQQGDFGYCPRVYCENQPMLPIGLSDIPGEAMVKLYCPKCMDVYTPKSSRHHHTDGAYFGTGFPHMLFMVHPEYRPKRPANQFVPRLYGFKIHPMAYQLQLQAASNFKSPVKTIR

Take `O=C1Nc2c(nc(Nc3cccc(Cl)c3)c3cc(C(=O)O)ccc23)C1=O` [Compound 1, 5-((3-chlorophenyl)amino)-2,3-dioxo-2,3-dihydro-1H-pyrrolo[3,2-c]isoquinoline-7-carboxylic acid]: the IC50 was determined as 38 nM in experiment [1]; 3900 nM in the experiment on HL60 (leukemia); 5400 nM in the experiment with MCF7 (breast); 3800 nM in the experiment on MDA-MB-231 (breast); 1500 nM in the experiment with HCT116 (colon); 3100 nM with A375 (melanoma). For the same compound, the IC50 with PC3 (prostate) amounted to 1100 nM; in the experiment on H1299 (lung), 1700 nM; in the experiment on MIAPaCa-2 (pancreas) it was 1100 nM. In addition, in [2], the “in vitro anti-proliferative / anticancer activity against human cancer cell lines (in words)” value is recorded as “promising in vitro anti-proliferative activity”.

The values are drawn from patent US12258345B1, “Pyrrolo[3,2-c]isoquinoline-2,3-dione compounds as CK2 inhibitors” (KING FAISAL UNIVERSITY, priority 2023, dated 2025).
